Source: US20240174650A1, “8-(PICOLINAMIDE) SUBSTITUTED COUMARIN COMPOUND, AND PREPARATION METHOD THEREFOR AND USE THEREOF” (LONGIVITRON (SUZHOU) BIOTECHNOLOGY CO., LTD, priority 2021, published 2024)

Columns and labels:
[1] = tested on: SH-SY5Y cells damaged by neurotoxicant MPP+; experiment: Protective activity on Parkinson's disease cell model (MPP+ treated SH-SY5Y, cell viability); assay type: cell-based; settings: compound 10 μM, MPP+ 5 mM, 48 h; FIG. 1
Procedure: Screening for compounds with protective activity on Parkinson ? s disease cell model:
For the screening test for protective effects on the Parkinson ? s disease cell model, the commonly recognized neurotoxicant MPP^+ (5 mM) is used on the neuroblastoma cell SH-SY5Y to construct the Parkinson ? s disease cell model. This neurotoxicant acts on the SH-SY5Y cell, induces abnormal accumulation of α-synuclein in the cells and causes Parkinson ? s disease-like neurotoxicity. The specific test method is as follows: approximately 20000 SH-SY5Y cells were grown in a 96-well cell plate and cultured overnight. […] The cell viability of the Parkinson ? s disease cell model was determined to assess the protective effects of the compounds on the Parkinson ? s cell model. The test data were analyzed by using GraphPad Prism.

[2] = tested on: neuroblastoma cell SH-SY5Y; experiment: Cytotoxicity assay for neuroblastoma cell SH-SY5Y (AlamarBlue); assay type: cell-based; settings: 48 hours incubation
Procedure: (§1) Cytotoxicity assay of compounds for neuroblastoma cell SH-SY5Y:
(§2) This testing example investigates the cytotoxicity of compounds against neuroblastoma cell SH-SY5Y, in order to determine the dose for the Parkinson ? s cell model protection assay in the next step. For the cytotoxicity assay, the specific test steps are as follows: the cultured neuroblastoma cell SH-SY5Y was grown in a 96-well cell culture plate with approximately 6000 cells per well. After overnight incubation, the culture medium was exchanged for a new one, and each well was added with different concentrations of Compounds 1-18 ([…], 10, 20, 50, 100, 200 μM), and different control samples were arranged. The cells were continued to be incubated at 37° C. for 48 hours. Each well was added with 10 μL of the dye AlamarBlue® (Invitrogen), and the cells were continued to be incubated at 37° C. for approximately 2 hours and then a color change of the staining solution could be observed; the change of absorption values was obtained on the enzyme-labeled instrument (Ex: 530 nm; Em: 590 nm). In the assay, there were 2 parallel tests for each compound with each concentration. The results were processed with software GraphPad Prism to calculate the cytotoxicity CC50 of each compound. The results are shown in Table 2 (in which Taxol is the positive control group).

[3] = molecular target: SIRT2 recombinant protein (Homo sapiens (Human), UniProt Q8IXJ6); experiment: In vitro activity screening of SIRT2 inhibitors (fluorogenic Ac-Gln-Pro-Lys-[Lys-(Ac)]-AMC peptide deacetylation assay); assay type: biochemical; settings: recombinant SIRT2 1.0 μg, 500 μM NAD+, 50 μM substrate peptide, 37° C. 2 hours
From the text: In vitro activity screening of SIRT2 inhibitors:
The full-length expression sequence ORF of the human SIRT2 gene is 1170 bp (Accession No.: NM_012237), and the molecular mass of the expressed SIRT2 protein is 43 KDa. The SIRT2 recombinant protein is expressed and purified according to the following steps: the SIRT2 gene was cloned into the expression vector pET-15b (primers were shown as follows: forward: 5 ? -[…]-3 ? (SEQ ID NO. 1); backward: 5 ? -[…]-3 ? (SEQ ID NO. 2)), and the expressed SIRT2 protein contained His6-tag at the N-terminus for purification. The plasmid was transformed into E. coli […], and expressed for 6 h at 18° C. with 1 mM IPTG induction. The induced E. coli cells were collected by centrifugation and frozen at −20° C. Bacterial pellet was re-suspended in 15 mL of cell lysis buffer (50 mM Tris-HCl pH 8.0, 300 mM NaCl), and the bacterial sample was disrupted by sonication for 10 min, and then centrifuged (12000×g, 20 min) at 4° C. to remove the precipitates.
The supernatant was purified by Ni^2+ NTA-agarose matrix column (Qiagen). In the purification process, the unbound proteins were first washed away with the loading buffer (50 mM Tris-HCl pH 8.0, 300 mM NaCl), subsequently, the non-specifically bound proteins were washed away by gradually increasing the concentration of imidazole (0-200 mM), and finally the purified recombinant SIRT2 protein was obtained. Imidazole was removed using a PD-10 column and the concentration of purified SIRT2 protein was determined by the Bradford method. The recombinant SIRT2 protein was stored at −20° C. in a preservation buffer (50 mM Tris-HCl, pH 8.0, 265 mM NaCl, 0.2 mM DTT, and 10% glycerol).
The SIRT2 enzyme activity assay is established based on the published studies. Firstly, peptide segment Ac-Gln-Pro-Lys-[Lys-(Ac)]-AMC, the substrate of SIRT2, was synthesized to serve as a substrate in the enzyme activity assay. The attached fluorescent label was AMC (7-Amino-4-methylcoumarin). […] The reaction was carried out at 37° C. for 2 hours. […] Afterwards, 60 μL of sample treating solution (50 mM Tris-HCl, pH 8.0, 100 mM NaCl, Trypsin and 4 mM nicotinamide) was added to the reaction solution and mixed, and placed at 37° C. for 20 min. Absorption intensity was measured by the enzyme-labeled instrument configured as an excitation light of 355 nm and an absorption light of 460 nm.

[4] = Cytotoxicity assay for neuroblastoma cell SH-SY5Y (AlamarBlue); assay type: cell-based; settings: human, SH-SY5Y neuroblastoma cells, 48 hours incubation
Procedure: as §1, §2

Chain of SIRT2 recombinant protein (Q8IXJ6 whole entry): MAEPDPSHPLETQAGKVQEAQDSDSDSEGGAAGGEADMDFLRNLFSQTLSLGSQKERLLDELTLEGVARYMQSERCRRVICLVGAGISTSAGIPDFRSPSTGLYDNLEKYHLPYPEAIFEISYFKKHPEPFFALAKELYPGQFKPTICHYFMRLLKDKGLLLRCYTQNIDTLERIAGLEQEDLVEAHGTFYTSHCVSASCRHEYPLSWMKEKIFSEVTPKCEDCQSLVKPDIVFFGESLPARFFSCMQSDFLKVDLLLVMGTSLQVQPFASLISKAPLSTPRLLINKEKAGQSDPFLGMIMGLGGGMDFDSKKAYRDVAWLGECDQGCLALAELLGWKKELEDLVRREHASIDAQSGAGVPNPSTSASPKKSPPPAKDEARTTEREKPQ

Row | SMILES | protective effect against SH-SY5Y cell damage by MPP+ (cell viability) [1] | CC50 [2] | IC50 [3] | CC50 at 48 h [4]
1 | O=C(Nc1ccnc(S(=O)(=O)Nc2ccc(Cl)cc2)c1)c1cccc2ccc(=O)oc12 [Compound 1, N-(2-(N-(4-chlorophenyl)aminosulfonyl)-pyridin-4-yl)-2-oxo-2H-chromene-8-amide] | more obvious protective effects | >20 μmol[…]L^−1 | 86 nM | 
2 | O=C(Nc1ccnc(S(=O)(=O)Nc2cccc(Cl)c2)c1)c1cccc2ccc(=O)oc12 [Compound 2, N-(2-(N-(3-chlorophenyl)aminosulfonyl)-pyridin-4-yl)-2-oxo-2H-chromene-8-amide] |  | >20 μmol[…]L^−1 | 359 nM | 
3 | O=C(Nc1ccnc(S(=O)(=O)Nc2ccccc2Cl)c1)c1cccc2ccc(=O)oc12 [Compound 3, N-(2-(N-(2-chlorophenyl)aminosulfonyl)-pyridin-4-yl)-2-oxo-2H-chromene-8-amide] |  | >20 μmol[…]L^−1 | 1230 nM | 
4 | Cc1ccc(NS(=O)(=O)c2cc(NC(=O)c3cccc4ccc(=O)oc34)ccn2)cc1 [Compound 4, N-(2-(N-(4-methylphenyl)aminosulfonyl)-pyridin-4-yl)-2-oxo-2H-chromene-8-amide] |  | >20 μmol[…]L^−1 | 356 nM | 
5 | O=C(Nc1ccnc(S(=O)(=O)Nc2cccc([N+](=O)[O-])c2)c1)c1cccc2ccc(=O)oc12 [Compound 5, N-(2-(N-(3-nitrophenyl)aminosulfonyl)-pyridin-4-yl)-2-oxo-2H-chromene-8-amide] |  | >20 μmol[…]L^−1 | 180 nM | 
6 | N#Cc1ccccc1NS(=O)(=O)c1cc(NC(=O)c2cccc3ccc(=O)oc23)ccn1 [Compound 6, N-(2-(N-(2-cyanophenyl)aminosulfonyl)-pyridin-4-yl)-2-oxo-2H-chromene-8-amide] |  | >20 μmol[…]L^−1 | 1700 nM | 
7 | O=C(Nc1ccnc(S(=O)(=O)Nc2ccc(F)cc2)c1)c1cccc2ccc(=O)oc12 [Compound 7, N-(2-(N-(4-fluorophenyl)aminosulfonyl)-pyridin-4-yl)-2-oxo-2H-chromene-8-amide] |  | >20 μmol[…]L^−1 | 120 nM | 
8 | CS(=O)(=O)c1ccc(NS(=O)(=O)c2cc(NC(=O)c3cccc4ccc(=O)oc34)ccn2)cc1 [Compound 8, N-(2-(N-(4-methylsulfonylphenyl)aminosulfonyl)-pyridin-4-yl)-2-oxo-2H-chromene-8-amide] |  | >20 μmol[…]L^−1 | 896 nM | 
9 | O=C(Nc1ccnc(S(=O)(=O)Nc2ccc(C(F)(F)F)cc2)c1)c1cccc2ccc(=O)oc12 [Compound 9, N-(2-(N-(4-trifluoromethylphenyl)aminosulfonyl)-pyridin-4-yl)-2-oxo-2H-chromene-8-amide] |  | >20 μmol[…]L^−1 | 90 nM | 
10 | O=C(Nc1ccnc(S(=O)(=O)Nc2ccc(-c3ccccc3)cc2)c1)c1cccc2ccc(=O)oc12 [Compound 10, N-(2-(N-(4-phenylphenyl)aminosulfonyl)-pyridin-4-yl)-2-oxo-2H-chromene-8-amide] |  | >20 μmol[…]L^−1 | 652 nM | 
11 | O=C(Nc1ccnc(S(=O)(=O)Nc2ccc(O)cc2)c1)c1cccc2ccc(=O)oc12 [Compound 11, N-(2-(N-(4-hydroxyphenyl)aminosulfonyl)-pyridin-4-yl)-2-oxo-2H-chromene-8-amide] |  | >20 μmol[…]L^−1 | 896 nM | 
12 | COc1ccc(NS(=O)(=O)c2cc(NC(=O)c3cccc4ccc(=O)oc34)ccn2)cc1 [Compound 12, N-(2-(N-(4-methoxylphenyl)aminosulfonyl)-pyridin-4-yl)-2-oxo-2H-chromene-8-amide] |  | >20 μmol[…]L^−1 | 2360 nM | 
13 | O=C(Nc1ccnc(S(=O)(=O)Nc2ccc(F)c(F)c2)c1)c1cccc2ccc(=O)oc12 [Compound 13, N-(2-(N-(3,4-difluorophenyl)aminosulfonyl)-pyridin-4-yl)-2-oxo-2H-chromene-8-amide] | more obvious protective effects | >20 μmol[…]L^−1 | 80 nM | 
14 | O=C(Nc1ccnc(S(=O)(=O)Nc2ccc(Cl)c(Br)c2)c1)c1cccc2ccc(=O)oc12 [Compound 14, N-(2-(N-(3-bromo-4-chlorophenyl)aminosulfonyl)-pyridin-4-yl)-2-oxo-2H-chromene-8-amide] | more obvious protective effects | >20 μmol[…]L^−1 | 195 nM | 
15 | O=C(Nc1ccnc(S(=O)(=O)Nc2cccc3ccc(Br)cc23)c1)c1cccc2ccc(=O)oc12 [Compound 15, N-(2-(N-(7-bromonaphth-1-yl)aminosulfonyl)-pyridin-4-yl)-2-oxo-2H-chromene-8-amide] | more obvious protective effects | >20 μmol[…]L^−1 | 154 nM | 
16 | O=C(Nc1ccnc(S(=O)(=O)Nc2cc(Cl)cc3ccccc23)c1)c1cccc2ccc(=O)oc12 [Compound 16, N-(2-(N-(3-chloronaphth-1-yl)aminosulfonyl)-pyridin-4-yl)-2-oxo-2H-chromene-8-amide] |  | >20 μmol[…]L^−1 | 86 nM | 
17 | O=C(Nc1ccnc(S(=O)(=O)Nc2cccc3ncccc23)c1)c1cccc2ccc(=O)oc12 [Compound 17, N-(2-(N-(quinoline-5-yl)aminosulfonyl)-pyridin-4-yl)-2-oxo-2H-chromene-8-amide] |  | >20 μmol[…]L^−1 | 871 nM | 
18 | CC(=O)O[C@H]1C(=O)[C@@]2(C)[C@H]([C@H](OC(=O)c3ccccc3)[C@]3(O)C[C@H](OC(=O)[C@H](O)[C@@H](NC(=O)c4ccccc4)c4ccccc4)C(C)=C1C3(C)C)[C@]1(OC(C)=O)CO[C@@H]1C[C@@H]2O [Taxol, reference compound] |  |  |  | 21 nM
